Laboratory results published in ChEMBL document CHEMBL1799987, “In vivo and in vitro SAR of tetracyclic MAPKAP-K2 (MK2) inhibitors. Part II” (Bioorg Med Chem Lett, 2010).
≈ marks a conversion by molar mass, not a printed value. Calls of active or inactive are those of the source. The calls are words filed in the database; no cut-off is given here.

Tests used:
[1] = Thermodynamic solubility of the compound at pH 6.8; assay type: physicochemical; conditions: buffer, read-out: Therm_solubility
PBMC = assay: cells; conditions: Homo sapiens
Description: Inhibition of LPS-induced TNFalpha production in human PBMC preincubated for 30 mins measured after 3 hrs of LPS stimulation

Plasma = assay: Plasma concentration in OF1 mouse at 100 mg/kg, po; assay type: ADME, organism-based; parameters: dose 100 mg/kg, route oral; conditions: in vivo
Mus musculus [2] = organism: Mus musculus; assay: animal or person; conditions: OF1, po, 1 h, read-out: INH
Description: Inhibition of LPS-induced TNFalpha production in OF1 mouse at 100 mg/kg, po after 1 hr by ELISA

[3] = Plasma concentration in antigen-induced arthritic rat model at 100 mg/kg, po BID measured 2 hrs post last dose; assay type: ADME, organism-based; parameters: dose 100 mg/kg, route oral
[4] = Cmax in rat at 1 mg/kg, po; assay type: ADME, organism-based; parameters: dose 1 mg/kg, route oral; conditions: in vivo
Rattus norvegicus [5] = assay: Antiarthritic activity in rat assessed as inhibition of antigen-induced paw swelling at 100 mg/kg, po BID; assay type: functional, organism-based; parameters: dose 100 mg/kg
Mus musculus [6] = assay: Antiarthritic activity in DBA/1 mouse assessed as inhibition of collagen-induced joint erosion at 100 mg/kg, po BID; assay type: functional, organism-based; parameters: dose 100 mg/kg
Rattus norvegicus [7] = assay: Volume of distribution at steady state in rat at 1 mg/kg, po; assay type: ADME, organism-based; parameters: dose 1 mg/kg, route oral; conditions: in vivo
[8] = Clearance in rat at 1 mg/kg, po; assay type: ADME, organism-based; parameters: dose 1 mg/kg, route oral; conditions: in vivo
[9] = Plasma concentration in antigen-induced arthritic rat model at 100 mg/kg, po BID measured 16 hrs post last dose; assay type: ADME, organism-based; parameters: dose 100 mg/kg, route oral
[10] = Plasma concentration in collagen-induced arthritic DBA/1 mouse model at 100 mg/kg, po BID measured 6 hrs post last dose; assay type: ADME, organism-based; parameters: dose 100 mg/kg, route oral
Mus musculus [11] = assay: Antiarthritic activity in DBA/1 mouse assessed as inhibition of collagen-induced joint damage at 100 mg/kg, po BID; assay type: functional, organism-based; parameters: dose 100 mg/kg
[12] = Oral bioavailability in rat at 1 mg/kg; assay type: ADME, organism-based; conditions: in vivo
[13] = Plasma concentration in collagen-induced arthritic DBA/1 mouse model at 100 mg/kg, po BID measured 2 hrs post last dose; assay type: ADME, organism-based; parameters: dose 100 mg/kg, route oral
Mus musculus [14] = assay: Antiarthritic activity in DBA/1 mouse assessed as inhibition of collagen-induced paw swelling at 100 mg/kg, po BID; assay type: functional, organism-based; parameters: dose 100 mg/kg
Mus musculus [15] = assay: Antiarthritic activity in DBA/1 mouse assessed as inhibition of collagen-induced proteoglycan loss at 100 mg/kg, po BID; assay type: functional, organism-based; parameters: dose 100 mg/kg
Mus musculus [16] = assay: Toxicity in collagen-induced arthritic DBA/1 mouse model assessed as body weight reduction at 100 mg/kg, po BID; assay type: organism-based; parameters: dose 100 mg/kg, route oral; conditions: in vivo
[17] = Half life in rat at 1 mg/kg, po; assay type: ADME, organism-based; parameters: dose 1 mg/kg, route oral; conditions: in vivo
Mus musculus [18] = assay: Antiarthritic activity in DBA/1 mouse assessed as inhibition of collagen-induced inflammatory cell infiltration at 100 mg/kg, po BID; assay type: functional, organism-based; parameters: dose 100 mg/kg
[19] = Plasma concentration in antigen-induced arthritic rat model at 100 mg/kg, po BID measured 6 hrs post last dose; assay type: ADME, organism-based; parameters: dose 100 mg/kg, route oral
Rattus norvegicus [20] = assay: Toxicity in antigen-induced arthritic rat model assessed as body weight reduction at 100 mg/kg, po BID; assay type: organism-based; parameters: dose 100 mg/kg, route oral; conditions: in vivo
[21] = AUC in rat at 1 mg/kg, po; assay type: ADME, organism-based; parameters: dose 1 mg/kg, route oral; conditions: plasma
[22] = biological target: T1, MAP kinase-activated protein kinase 2 (Homo sapiens, UniProt P49137)
[23] = biological target: T1, MAP kinase-activated protein kinase 2; remark: listed apart in the source
Description: Inhibition of MK2 mediated anisomycin-stimulated hsp27 phosphorylation in human THP-1 cells by fluorometric analysis

T1 sequence (P49137 whole entry): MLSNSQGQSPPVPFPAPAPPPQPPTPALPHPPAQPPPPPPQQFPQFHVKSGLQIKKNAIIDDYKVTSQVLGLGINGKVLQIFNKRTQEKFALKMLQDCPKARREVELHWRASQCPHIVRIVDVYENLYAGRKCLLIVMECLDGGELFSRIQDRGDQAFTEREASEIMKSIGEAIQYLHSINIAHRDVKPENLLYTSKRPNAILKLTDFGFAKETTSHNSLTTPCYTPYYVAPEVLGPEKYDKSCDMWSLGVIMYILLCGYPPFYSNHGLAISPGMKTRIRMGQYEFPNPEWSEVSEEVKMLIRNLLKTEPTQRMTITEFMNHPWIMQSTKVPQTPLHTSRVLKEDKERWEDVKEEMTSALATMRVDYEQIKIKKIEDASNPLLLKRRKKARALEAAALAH

COc1ccc(-c2cc3c(cn2)CCc2c-3[nH]c3c2C(=O)NC2(CNC2)C3)cc1
solubility thermodynamic [1]: 32 µM (≈ 12.4 µg/mL)
IC50 (PBMC): 1300 nM

O=C1NCC2(CC2)c2[nH]c3c(c21)CCc1cnc(-c2cccc(F)c2)cc1-3
solubility thermodynamic [1]: < 4 µM
IC50 (PBMC): 900 nM

O=C1NCCc2[nH]c(-c3ccnc(-c4ccccc4F)c3)cc21
solubility thermodynamic [1]: 337 µM (≈ 104 µg/mL)
IC50 (PBMC): > 10000 nM

COCCOc1cncc(-c2cc3c(cn2)CCCc2c-3[nH]c3c2C(=O)NCC3)c1
solubility thermodynamic [1]: 21 µM (≈ 8.49 µg/mL)
IC50 (PBMC): 1100 nM

O=C1NC2(CC2)Cc2[nH]c3c(c21)CCc1cnc(-c2ccccc2F)nc1-3
solubility thermodynamic [1]: 8 µM (≈ 2.88 µg/mL)
IC50 (PBMC): 2300 nM

CN1CC2(CNC(=O)c3c4c(n(C)c32)-c2cc(-c3ccccc3F)ncc2CC4)C1
solubility thermodynamic [1]: 41 µM (≈ 16.5 µg/mL)
IC50 (PBMC): 1100 nM

COCCOc1cncc(-c2cc3c(cn2)CCc2c-3[nH]c3c2C(=O)NCC3)c1
solubility thermodynamic [1]: 8 µM (≈ 3.12 µg/mL)
IC50 (PBMC): 400 nM

COc1ccc(-c2ncc3c(n2)-c2[nH]c4c(c2CC3)C(=O)NC2(CC2)C4)cc1
solubility thermodynamic [1]: < 4 µM

COc1ccc(-c2ncc3c(n2)-c2[nH]c4c(c2CC3)C(=O)NCC42CC2)cc1
solubility thermodynamic [1]: < 4 µM
IC50 (PBMC): 400 nM

COc1ccc(-c2ncc3c(n2)-c2[nH]c4c(c2CC3)C(=O)NCC42CN(C)C2)cc1
solubility thermodynamic [1]: 43 µM (≈ 17.3 µg/mL)
IC50 (PBMC): 100 nM

O=C1NCC2(CNC2)c2[nH]c3c(c21)CCc1cnc(-c2cccc(F)c2)cc1-3
IC50 (PBMC): 200 nM

COc1ccc(-c2cc3c(cn2)CCc2c-3[nH]c3c2C(=O)NC2(CC2)C3)cc1
concentration (Plasma): 25000 nM
solubility thermodynamic [1]: < 4 µM
inhibition in vivo at 100 mg/kg (Mus musculus [2]): 81%
IC50 (PBMC): 200 nM

CN1CC2(CNC(=O)c3c2[nH]c2c3CCc3cnc(-c4cccc(F)c4)cc3-2)C1
concentration (Plasma): 1000 nM
solubility thermodynamic [1]: 10 µM (≈ 3.88 µg/mL)
inhibition in vivo at 100 mg/kg (Mus musculus [2]): 0%
IC50 (PBMC): 200 nM

CN1CC2(CNC(=O)c3c2[nH]c2c3CCc3cnc(-c4ccccc4F)cc3-2)C1
concentration (Plasma): 6000 nM
solubility thermodynamic [1]: > 1000 µM
inhibition in vivo at 100 mg/kg (Mus musculus [2]): 90%
IC50 (PBMC): 100 nM

O=C1NCCc2[nH]c3c(c21)CCc1cnc(-c2cccc(F)c2)cc1-3
solubility thermodynamic [1]: < 4 µM
IC50 (PBMC): 500 nM

CN1CC2(CNC(=O)c3c2[nH]c2c3CCc3cnc(-c4ccc(F)nc4)cc3-2)C1
concentration (Plasma): 600 nM
solubility thermodynamic [1]: 47 µM (≈ 18.3 µg/mL)
inhibition in vivo at 100 mg/kg (Mus musculus [2]): 26%
IC50 (PBMC): 100 nM

O=C1NC2(CC2)Cc2[nH]c3c(c21)CCc1cnc(-c2ccc(F)nc2)cc1-3
concentration at 2 h [3]: 11700 nM
Cmax [4]: 105 nM
Activity (Rattus norvegicus [5]): Active
Activity (Mus musculus [6]): Active
Vdss (Rattus norvegicus [7]): 1.9 L/kg
concentration (Plasma): 30000 nM
CL/F [8]: 12 mL/min/kg
concentration at 16 h [9]: 500 nM
concentration at 6 h [10]: 2400 nM
solubility thermodynamic [1]: 9 µM (≈ 3.24 µg/mL)
Activity (Mus musculus [11]): Active
bioavailability [12]: 24%
concentration at 2 h [13]: 16000 nM
inhibition in vivo at 100 mg/kg (Mus musculus [2]): 96%
Activity (Mus musculus [14]): Active
Activity (Mus musculus [15]): Active
Activity (Mus musculus [16]): Non-toxic
IC50 (PBMC): 300 nM
half-life [17]: 1.3 h
Activity (Mus musculus [18]): Active
concentration at 6 h [19]: 9800 nM
Activity (Rattus norvegicus [20]): Non-toxic
AUC [21]: 2 µM·h

CN1CC2(CNC(=O)c3c2[nH]c2c3CCc3cnc(-c4ccc(OCCN5CCOCC5)cc4)cc3-2)C1
IC50 (PBMC): 600 nM

COCCCOc1cncc(-c2cc3c(cn2)CCc2c-3[nH]c3c2C(=O)NCC32CN(C)C2)c1
IC50 (PBMC): 700 nM

O=C1NC2(CC2)Cc2[nH]c3c(c21)CCc1cnc(-c2ccc(F)nc2)nc1-3
solubility thermodynamic [1]: < 4 µM
IC50 (PBMC): 700 nM

COCCOc1cncc(-c2ncc3c(n2)-c2[nH]c4c(c2CC3)C(=O)NCC42CN(C)C2)c1
IC50 (PBMC): 1500 nM

CN1CCC2(CC1)CNC(=O)c1c2[nH]c2c1CCc1cnc(-c3ccccc3F)cc1-2
solubility thermodynamic [1]: > 1000 µM
IC50 (PBMC): 200 nM

O=C1NCC2(CNC2)c2oc3c(c21)CCc1cnc(-c2cccc(F)c2)cc1-3
solubility thermodynamic [1]: 51 µM (≈ 19.1 µg/mL)
IC50 (PBMC): 2500 nM

COCCOc1cncc(-c2cc3c(ccc4c5c([nH]c43)CCNC5=O)cn2)c1
IC50 [22]: 10 nM
IC50 [23]: 1500 nM
solubility thermodynamic [1]: < 4 µM
IC50 (PBMC): 300 nM

O=C1NCC2(CNC2)c2[nH]c3c(c21)CCc1cnc(-c2ccccc2F)cc1-3
solubility thermodynamic [1]: 337 µM (≈ 126 µg/mL)
IC50 (PBMC): 100 nM

CN1CC2(CNC(=O)c3c2[nH]c2c3CCc3cnc(-c4ccc(OCCN5CCOCC5)cc4)nc3-2)C1
IC50 (PBMC): 100 nM

CN1CC2(CNC(=O)c3c2[nH]c2c3CCc3cnc(-c4ccccc4F)nc3-2)C1
solubility thermodynamic [1]: 373 µM (≈ 145 µg/mL)
IC50 (PBMC): 1600 nM

O=C1NC2(CC2)Cc2[nH]c3c(c21)CCc1cnc(-c2ccc(OCCN4CCOCC4)cc2)cc1-3
solubility thermodynamic [1]: < 4 µM
IC50 (PBMC): 200 nM

CN1CC2(CNC(=O)c3c2[nH]c2c3CCc3cnc(-c4cccc(F)c4)nc3-2)C1
IC50 (PBMC): 500 nM

CN1CC2(CNC(=O)c3c2[nH]c2c3CCc3cnc(-c4ccc(F)nc4)nc3-2)C1
solubility thermodynamic [1]: 173 µM (≈ 67.5 µg/mL)
IC50 (PBMC): 700 nM

O=C1NC2(CC2)Cc2[nH]c3c(c21)CCc1cnc(-c2cccc(F)c2)cc1-3
concentration (Plasma): 15000 nM
solubility thermodynamic [1]: 5 µM (≈ 1.8 µg/mL)
inhibition in vivo at 100 mg/kg (Mus musculus [2]): 55%
IC50 (PBMC): 800 nM

O=C1NCCc2[nH]c3c(c21)CCc1cnc(-c2ccccc2F)cc1-3
solubility thermodynamic [1]: 11 µM (≈ 3.67 µg/mL)
IC50 (PBMC): 1500 nM

O=C1NC2(CC2)Cc2[nH]c3c(c21)CCc1cnc(-c2ccccc2F)cc1-3
solubility thermodynamic [1]: 10 µM (≈ 3.59 µg/mL)
IC50 (PBMC): 900 nM

CC(=O)N1CC2(CNC(=O)c3c2[nH]c2c3CCc3cnc(-c4ccccc4F)cc3-2)C1
solubility thermodynamic [1]: 24 µM (≈ 9.99 µg/mL)
IC50 (PBMC): 6500 nM

O=C1NC2(CC2)Cc2[nH]c3c(c21)CCc1cnc(-c2ccc(OCCN4CCOCC4)cc2)nc1-3
solubility thermodynamic [1]: < 4 µM
IC50 (PBMC): 300 nM

COc1ccc(-c2cc3c(cn2)CCc2c-3[nH]c3c2C(=O)NCC32CC2)cc1
concentration (Plasma): 600 nM
solubility thermodynamic [1]: < 4 µM
inhibition in vivo at 100 mg/kg (Mus musculus [2]): 16%
IC50 (PBMC): 1700 nM

O=C1NCC2(CN(CCF)C2)c2[nH]c3c(c21)CCc1cnc(-c2ccccc2F)cc1-3
IC50 (PBMC): 1500 nM

CCN1CC2(CNC(=O)c3c2[nH]c2c3CCc3cnc(-c4ccccc4F)cc3-2)C1
solubility thermodynamic [1]: 950 µM (≈ 382 µg/mL)
IC50 (PBMC): 700 nM

CN1CC2(CNC(=O)c3c2[nH]c2c3Cc3cnc(-c4ccccc4F)cc3-2)C1
solubility thermodynamic [1]: 69 µM (≈ 25.8 µg/mL)
IC50 (PBMC): > 10000 nM

Cn1c2c(c3c1C1(CNC1)CNC3=O)CCc1cnc(-c3ccccc3F)cc1-2
solubility thermodynamic [1]: 54 µM (≈ 21 µg/mL)
IC50 (PBMC): 1800 nM

COc1ccc(-c2cc3c(cn2)CCc2c-3[nH]c3c2C(=O)NCC3)cc1
solubility thermodynamic [1]: < 4 µM
IC50 (PBMC): 100 nM

COc1ccc(-c2cc3c(cn2)CCc2c-3[nH]c3c2C(=O)NCC32CN(C)C2)cc1
concentration (Plasma): 100 nM
solubility thermodynamic [1]: 40 µM (≈ 16 µg/mL)
inhibition in vivo at 100 mg/kg (Mus musculus [2]): 0%
IC50 (PBMC): 60 nM

COc1ccc(-c2cc3c(cn2)CCc2c-3[nH]c3c2C(=O)NC2(C3)CN(C)C2)cc1
solubility thermodynamic [1]: < 4 µM
IC50 (PBMC): 1100 nM

COc1ccc(-c2ncc3c(n2)-c2[nH]c4c(c2CC3)C(=O)NCC4)cc1
solubility thermodynamic [1]: < 5 µM
IC50 (PBMC): 900 nM

O=C1NCC2(CC2)c2[nH]c3c(c21)CCc1cnc(-c2ccc(F)nc2)cc1-3
concentration (Plasma): 1900 nM
solubility thermodynamic [1]: < 4 µM
inhibition in vivo at 100 mg/kg (Mus musculus [2]): 30%
IC50 (PBMC): 700 nM
